Measured values published in the NIST ThermoML archive (doi:10.1016/j.jct.2004.08.004).
Values joined by “and” are separate entries in the source; they are usually repeats but may differ in a detail not shown here. Identical values can stand only once.

Conditions: Liquid, Transpiration method

CCCCCCCCCCCC#N [n-dodecanenitrile]
Conditions | vapor or sublimation pressure [kPa]
298.2 K | 0.00052
301.2 K | 0.00071
306.1 K | 0.00111
312.2 K | 0.00186
315.1 K | 0.00239
318.2 K | 0.00323
319.2 K | 0.0036
322.2 K | 0.00462
325.2 K | 0.0059
328.2 K | 0.00742
331.2 K | 0.00936
334.2 K | 0.0117
337.2 K | 0.01464
340.2 K | 0.01821
343.2 K | 0.02303
346.2 K | 0.02783
349.2 K | 0.03419
352.3 K | 0.04237
355.3 K | 0.05317
358.2 K | 0.06363
361.2 K | 0.07929
364.2 K | 0.09431
367.1 K | 0.1148

CCCCCCCCCCCCCCCC#N [hexadecanenitrile]
Conditions | vapor or sublimation pressure [kPa]
345.1 K | 0.00096
348.1 K | 0.00128
351.2 K | 0.00165
354.2 K | 0.00212
357.2 K | 0.00262
360.2 K | 0.00342
363.2 K | 0.00434
366.2 K | 0.00532
369.2 K | 0.00658
372.1 K | 0.00826
376.2 K | 0.0112
379.2 K | 0.0136
382.2 K | 0.01642

CCCCCCCC#N [octanenitrile]
Conditions | vapor or sublimation pressure
283.2 K | 0.01192 kPa
286.2 K | 0.0152 kPa
289.2 K | 0.01964 kPa
292.2 K | 0.02498 kPa
295.2 K | 0.03092 kPa
298.2 K | 0.03898 kPa
301.2 K | 0.04949 kPa and 0.04849 kPa
304.2 K | 0.06148 kPa
307.1 K | 0.07561 kPa
310.2 K | 0.09243 kPa and 0.09473 kPa

CCCCCCCCCCCCC#N [dodecanecarbonitrile]
Conditions | vapor or sublimation pressure [kPa]
301.2 K | 0.00024
313.3 K | 0.00075
318.1 K | 0.0012
324.1 K | 0.00205
327.2 K | 0.0028
330.2 K | 0.00364
333.1 K | 0.00466
336.2 K | 0.00594
339.2 K | 0.00754
342.1 K | 0.0095
345.2 K | 0.01168
348.2 K | 0.01466
351.2 K | 0.01796
354.2 K | 0.02244
357.2 K | 0.02764
360.2 K | 0.03471
363.2 K | 0.04232

CCCCCCCCCC#N [1-decanenitrile]
Conditions | vapor or sublimation pressure [kPa]
295.2 K | 0.00359
298.3 K | 0.00484
302.2 K | 0.00692
305.6 K | 0.00928
308.7 K | 0.01188
311.7 K | 0.01511
313.1 K | 0.01667
315.2 K | 0.01966
316.2 K | 0.02172
319.2 K | 0.02728
322.2 K | 0.03317
326.3 K | 0.04574

CCCCCCCCCCCCCCCCC#N [heptadecanenitrile]
Conditions | vapor or sublimation pressure [kPa]
348.2 K | 0.00055
351.2 K | 0.00072
354.2 K | 0.00093
357.2 K | 0.00117
360.2 K | 0.00156
363.2 K | 0.00201
366.2 K | 0.00252
369.1 K | 0.00316
372.1 K | 0.00402
376.2 K | 0.00532
379.2 K | 0.00678
382.2 K | 0.00824
385.2 K | 0.01022

CCCCCCC#N [heptanenitrile]
Conditions | vapor or sublimation pressure [kPa]
280.2 K | 0.02893
283.2 K | 0.03746
286.2 K | 0.04773
289.2 K | 0.05977
292.2 K | 0.07501
295.2 K | 0.09393
298.2 K | 0.1138
301.2 K | 0.1417
304.2 K | 0.1723
307.2 K | 0.2092

CCCCCCCCCCCCCCC#N [1-tetradecyl cyanide]
Conditions | vapor or sublimation pressure [kPa]
336.2 K | 0.00105
339.2 K | 0.00137
342.1 K | 0.00176
345.2 K | 0.00219
348.1 K | 0.00287
351.2 K | 0.00356
354.2 K | 0.00459
357.2 K | 0.00567
360.2 K | 0.00704
363.2 K | 0.00901
366.2 K | 0.01122
369.1 K | 0.0138
372.1 K | 0.017

CCCCCCCCC#N [nonanenitrile]
Conditions | vapor or sublimation pressure
285.2 K | 0.0039 kPa
286.2 K | 0.00449 kPa
288.2 K | 0.00519 kPa
290.2 K | 0.0064 kPa
291.7 K | 0.00714 kPa
293.2 K | 0.00797 kPa
295.2 K | 0.00992 kPa
296.2 K | 0.01052 kPa
298.2 K | 0.0124 kPa
299.2 K | 0.0135 kPa
301.2 K | 0.01585 kPa
302.2 K | 0.01722 kPa
304.2 K | 0.0198 kPa
305.2 K | 0.02231 kPa
307.2 K | 0.02482 kPa
308.2 K | 0.02855 kPa
310.2 K | 0.03154 kPa
311.2 K | 0.03619 kPa
313.2 K | 0.04037 kPa
316.2 K | 0.05039 kPa and 0.05346 kPa
319.2 K | 0.06245 kPa
320.2 K | 0.06797 kPa
323.2 K | 0.08366 kPa

CCCCCCCCCCC#N [1-decylcyanide]
Conditions | vapor or sublimation pressure [kPa]
290.3 K | 0.00062
298.2 K | 0.00131
305.2 K | 0.00255
307.2 K | 0.00308
309.2 K | 0.00374
310.2 K | 0.00402
313.2 K | 0.0051
314.2 K | 0.00577
319.1 K | 0.00834
319.2 K | 0.00877
322.1 K | 0.01069
322.2 K | 0.0113
325.2 K | 0.0144
325.3 K | 0.01379
327.2 K | 0.01646
328.2 K | 0.01792
331.3 K | 0.02254
332.2 K | 0.02447
334.2 K | 0.02763
337.2 K | 0.03454
337.3 K | 0.03505
340.3 K | 0.04264

CCCCCCCCCCCCCC#N [tetradecanenitrile]
Conditions | vapor or sublimation pressure [kPa]
327.2 K | 0.00109
330.2 K | 0.00139
333.2 K | 0.00183
336.2 K | 0.00236
339.2 K | 0.00306
342.1 K | 0.00383
345.2 K | 0.00491
348.1 K | 0.00628
351.2 K | 0.00777
354.2 K | 0.00982
357.2 K | 0.01221
360.2 K | 0.01474
363.2 K | 0.01847
366.2 K | 0.02305
369.2 K | 0.02799
